Laboratory results published in patent publication US10906929B2, “Phosphoramidate nucleoside derivatives as anticancer agents” (NuCana plc, priority 2016, dated 2021).

What was measured:
[1] = tested on: MCF7 cells infected with Mycoplasma hyorhnis (HYOR); assay: Cytostatic activity in mycoplasma-infected cells; format: cell-based, human
Description: (§1) Tumor cell cultures were infected with M. hyorhinis (ATCC 17981) and after two or more passages (to avoid bias by the initial inoculum) successful infection was confirmed using the MycoAlert™ mycoplasma detection kit (Lonza, Basel, Switzerland). Although this assay is only semi-quantitative, a maximal infection was observed 3 to 4 days after subcultivation of the mycoplasma-exposed cells. Chronically infected tumor cell lines are further referred to as Cell line.Hyor. All tumor cell cultures were maintained in Dulbecco's modified Eagle's medium (DMEM) (Invitrogen) supplemented with 10% fetal bovine serum (Biochrom AG, Berlin, Germany), 10 mm HEPES, and 1 mm sodium pyruvate (Invitrogen). Cells were grown at 37° C. in a humidified incubator with a gas phase containing 5% CO2.
(§2) The cytostatic activity of the test compounds was examined in mycoplasma-infected and uninfected cancer cell lines. When assaying the effect of M. hyorhinis infection, monolayer MCF7 and MCF7.Hyor cells were seeded in 48-well microtiter plates (Nunc™, Roskilde, Denmark) at 10,000 cells/well (Corning Inc., Corning, N.Y.) […]. After 24 h, the cells were exposed to different concentrations of test compound and allowed to proliferate for 72 h (to ensure sufficient cell proliferation and mycoplasma growth) after which the cells were trypsinized and counted using a Coulter counter (Analis, Suarlée, Belgium). Suspension cells (L1210, L1210.Hyor, FM3A, and FM3A.Hyor) were seeded in 96-well microtiter plates (Nunc) at 60,000 cells/well in the presence of different concentrations of test compound. The cells were allowed to proliferate for 48 h and then counted using a Coulter counter. The 50% inhibitory concentration (IC50) was defined as the compound concentration required to reduce cell proliferation by 50%.

[2] = tested on: HL-60 Promyelocytic leukaemia; assay: In vitro viability assay, CellTiterGlo; format: cell-based; conditions: HL-60, CellTiterGlo, 72 h
Protocol: (§3) In vitro viability assay was performed to assess the effects of compounds on cell viability in selected cell lines over 72 h using the CellTiterGlo (CTG, Promega-G7573) assay. The tests were performed in duplicates with treatment of compounds at 9 points, 3.16 folds titration in 96 well plates over ˜72 h. The compound starting concentrations were […]. Cell viability assay using CellTiterGlo in 96-well plate were performed. Compounds were dissolved to 40 mM with thawed 100% DMSO. Compounds were serially diluted at 3.16-fold in thawed DMSO, and warmed to 37° C. before being dissolved in media (2 μl+200 μl). After compounds were dissolved in media, media containing compounds were warmed to 37° C. in incubator and then compounds in media were added to cell plates (50 μl+50 μl) in duplicates. The compounds' final concentrations were from 198 μM to 19.9 nM. Solubility of all compounds was checked and recorded again, then the plates were transferred to CO2 tissue culture incubator immediately and incubated for 3 days. DMSO final concentration is 0.5%.

[3] = tested on: KG-1 Acute myelogenous leukaemia; assay: In vitro viability assay, CellTiterGlo; format: cell-based; conditions: KG-1, CellTiterGlo, 72 h
Protocol: as §3

[4] = tested on: RL Non-Hodgkin's lymphoma; assay: In vitro viability assay, CellTiterGlo; format: cell-based; conditions: CellTiterGlo, 72 h
Protocol: as §3

[5] = tested on: Z-138 Mantle cell lymphoma; assay: In vitro viability assay, CellTiterGlo; format: cell-based; conditions: Z-138, CellTiterGlo, 72 h
Protocol: as §3

[6] = tested on: HEL92.1.7 Erythroleukaemia; assay: In vitro viability assay, CellTiterGlo; format: cell-based; conditions: HEL92.1.7, CellTiterGlo, 72 h
Protocol: as §3

KG1a cell line = assay: Annexin V/propidium iodide apoptosis assay; format: cell-based; conditions: 72 h, dose required to kill 50% of the cells
Protocol: Cells of the KG1a cell line were maintained in RPMI medium (Invitrogen, Paisley, UK) supplemented with 100 units/ml penicillin, 100 μg/ml streptomycin and 20% foetal calf serum. Cells were subsequently aliquoted (10^5 cells/100 μl) into 96-well plates and were incubated at 37° C. in a humidified 5% carbon dioxide atmosphere for 72 h in the presence of nucleoside analogues and their respective phosphoramidates at concentrations that were experimentally determined for each series of compounds. In addition, control cultures were carried out to which no drug was added. Cells were subsequently harvested by centrifugation and were analyzed by flow cytometry using the Annexin V assay.
Measurement of in vitro apoptosis. Cultured cells were harvested by centrifugation and then resuspended in 195 μl of calcium-rich buffer. Subsequently, 5 μl of Annexin V (Caltag Medsystems, Botolph Claydon, UK) was added to the cell suspension and cells were incubated in the dark for 10 mins prior to washing. Cells were finally resuspended in 190 μl of calcium-rich buffer together with 10 μl of propidium iodide. Apoptosis was assessed by dual-colour immunofluorescent flow cytometry as described previously. Subsequently LD50 values (the dose required to kill 50% of the cells in a culture) were calculated for each nucleoside analogue and phosphoramidate.
The data obtained in these experiments were evaluated using one way ANOVA. All data was confirmed as Gaussian or a Gaussian approximation using the omnibus K2 test. LD50 values were calculated from the non-linear regression and line of best-fit analysis of the sigmoidal dose-response curves. All statistical analyses were performed using Graphpad Prism 6.0 software (Graphpad Software Inc., San Diego, Calif.).

[7] = tested on: L1210 cells infected with Mycoplasma hyorhinis (HYOR); assay: Cytostatic activity in mycoplasma-infected cells; format: cell-based, mouse
Description: as §1, §2

[8] = Homo sapiens, read-out: EC50 (μM) Ab

## Nc1nc(Cl)nc2c1ncn2[C@H]1C[C@H](O)[C@@H](CO)O1 [Cladribine, cladribine, reference compound]
[1]; Homo sapiens, MCF7, 72 h, read-out: IC50 MCF7/HYOR
  IC50: 9300 nM
[1]; MCF7/HYOR versus MCF7
  Loss of potency: 25-fold
[2]
  Top Inhibition (%): 85%
[2]; [8]
  EC50: < 0.019 µM
[3]; [8]
  EC50: 0.17 µM
[3]
  Top Inhibition (%): 93.5%
[4]
  Top Inhibition (%): 94.7%
[4]; [8]
  EC50: < 0.019 µM
[5]; [8]
  EC50: < 0.019 µM
[5]
  Top Inhibition (%): 99.7%
[6]
  Top Inhibition (%): 97.4%
[6]; Homo sapiens, HEL 92.1.7, read-out: EC50 (μM) Ab
  EC50: < 0.019 µM
KG1a cell line
  LD50: 0.18 μm
[7]; L1210/HYOR versus L1210
  Loss of potency: 8-fold
[7]; Mus musculus, L1210, 48 h, read-out: IC50 L1210/HYOR
  IC50: 3000 nM
